Data as given in US12157730B2, “Heteroaryl derivative, method for producing same, and pharmaceutical composition comprising same as effective component” (VORONOI INC., priority 2019, dated 2024).

Biological target: T1, Ba/F3 cell EGFR Exon20 ins NPH (Homo sapiens, UniProt P00533, INS773NPH)
T1 construct: expressed in transfected cells; host or cells: Ba/F3
Experiment: Ba/F3 cell proliferation suppression, EGFR Exon20 ins NPH
Format: cell-based
Conditions: GI50 class; Ba/F3 cell line with NPH inserted at Exon20 of EGFR; 72 hours
Procedure: The following experiment was carried out to evaluate the suppression activity of the compounds according to the present invention against proliferation of Ba/F3 and lung cancer cells which express EGFR mutations.
Of the cancer cell lines expressing the EGFR gene, A549 was cultured after adding 10% FBS (HyClone) to DMEM (Invitrogen), and RPMI-1640 (Invitrogen) with 10% FBS was used for the other cancer cells. For the Ba/F3 cells, RPMI-1640 with 10% FBS and 5 ng/ml IL-3 (R&D Systems) was used. The transduced Ba/F3 cells were cultured by adding 1 ug/ml puromycin (Invitrogen) to the same medium.
24 hours before treatment with the compounds, 3000 to 5000 cells were distributed into each well of a white clear bottom 96 well plate (Corning). The compounds were diluted in dimethylsulfoxide (dilution ratio 3:1; 12 concentrations total) and injected 0.5 ul each for a final concentration of 0.3 nM to 50 um. As for measurement of live cells, 72 hours after treatment with the compounds, a CellTiter-Glo luminescent cell-viability reagent (Promega) was used to store the cells at room temperature for 10 minutes, followed by measurement of luminescence using a reader (SynergyNeo, Biotek). Each test was repeated three times.
The result was calculated as a cell growth ratio (%) compared to a control. The program GraphPad Prism version 5.0 was used to draw the graphs and calculate the GI50 values.

SMILES	Ba/F3 (NPH) Activity
C=CC(=O)Nc1cc(Nc2cc(N3OCC[C@@H]3c3cccc(Cl)c3Cl)ncn2)c(OC)cc1N1CCC(N2CCN(C3CCN(C)CC3)CC2)CC1 [compound 611]	B (50 nM ≤ GI50 < 500 nM)
C=CC(=O)Nc1cc(Nc2cc(N3OCC[C@@H]3c3ccc(F)c(Cl)c3)ncn2)c(OC)cc1N1CCN(C2CC2)CC1 [compound 725, N-(5-((6-((R)-3-(3-chloro-4-fluorophenyl)isoxazolidine-2-yl)pyrimidine-4-yl)amino)-2-(4-cyclopropylpiperazine-1-yl)-4-methoxyphenyl) acrylamide]	A (GI50 < 50 nM)
C=CC(=O)Nc1cc(Nc2cc(N3OCC[C@@H]3c3ccc(C)nc3)ncn2)c(OC)cc1N1CCC(N2C[C@@H]3C[C@H]2CO3)CC1 [Example 228, N-(2-(4-((1S,4S)-2-oxa-5-azabicyclo[2.2.1]heptane-5-yl)piperidine-1-yl)-4-methoxy-5-((6-((R)-3-(6-methylpyridine-3-yl)isoxazolidine-2-yl)pyrimidine-4-yl)amino)phenyl)acrylamide]	A (GI50 < 50 nM)
C=CC(=O)Nc1cc(Nc2cc(N3OCC[C@@H]3c3cccc(F)c3F)ncn2)c(OC)cc1N1CCC(N2CC3CCC(C2)N3C2CC2)CC1 [Example 135, N-(2-(4-(8-cyclopropyl-3,8-diazabicyclo[3.2.1]octan-3-yl)piperidine-1-yl)-5-((6-((R)-3-(2,3-difluorophenyl)isoxazolidine-2-yl)pyrimidine-4-yl)amino)-4-methoxyphenyl) acrylamide]	A (GI50 < 50 nM)
C=CC(=O)Nc1cc(Nc2cc(N3OCC[C@H]3c3c(F)cccc3F)ncn2)c(OC)cc1N1C[C@H]2CCN(C)[C@H]2C1 [compound 898, N-(5-((6-((S)-3-(2,6-difluorophenyl)isoxazolidine-2-yl)pyrimidine-4-yl)amino)-4-methoxy-2-((3aR,6aR)-1-methylhexahydropyrrolo [3,4-b]pyrrole-5(1H)-yl)phenyl) acrylamide]	C (500 nM ≤ GI50 < 5000 nM)
C=CC(=O)Nc1cc(Nc2cc(N3OCC[C@@H]3c3cc(F)cc(Cl)c3)ncn2)c(OC)cc1N1CCC(N2C[C@@H]3CCN(C)[C@@H]3C2)CC1 [compound 540, N-(5-((6-((R)-3-(3-chloro-5-fluorophenyl)isoxazolidine-2-yl)pyrimidine-4-yl)amino)-4-methoxy-2-(4-((3aS,6aS)-1-methylhexahydropyrrolo [3,4-b]pyrrole-5(1H)-yl)piperidine-1-yl)phenyl)acrylamide]	A (GI50 < 50 nM)
C=CC(=O)Nc1cc(Nc2cc(N3OCC[C@@H]3Cc3ccccc3)ncn2)c(OC)cc1N1C[C@H]2C[C@@H]1CO2 [compound 957, N-(5-((6-((S)-3-benzylisoxazolidine-2-yl)pyrimidine-4-yl)amino)-2-((1R,4R)-2-oxa-5-azabicyclo [2.2.1]heptane-5-yl)-4-methoxyphenyl) acrylamide]	A (GI50 < 50 nM)
C=CC(=O)Nc1cc(Nc2cc(N3OCC[C@@H]3c3ccccc3)ncn2)c(OC)cc1N1CCC(N2CC[C@H](N(C)C)C2)CC1 [Example 286, N-(2-(4-((S)-3-(dimethylamino)pyrolidine-1-yl)piperidine-1-yl)-4-methoxy-5-((6-((R)-3-phenylisoxazolidine-2-yl)pyrimidine-4-yl)amino)phenyl) acrylamide]	A (GI50 < 50 nM)
C=CC(=O)Nc1cc(Nc2cc(N3OCC[C@@H]3c3cc(F)cc(F)c3)ncn2)c(OC)cc1N1CCN(C)C[C@@H]1C [compound 919, N-(5-((6-((R)-3-(3,5-difluorophenyl)isoxazolidine-2-yl)pyrimidine-4-yl)amino)-2-((S)-2,4-dimethylpiperazine-1-yl)-4-methoxyphenyl) acrylamide]	A (GI50 < 50 nM)
C=CC(=O)Nc1cc(Nc2cc(N3OCC[C@@H]3c3ccc4ccccc4c3)ncn2)c(OC)cc1N1C[C@H](C)O[C@@H](C)C1 [compound 660, N-(2-((2S,6S)-2,6-dimethylmorpholino)-4-methoxy-5-((6-((R)-3-(naphthalene-2-yl)isoxazolidine-2-yl)pyrimidine-4-yl)amino)phenyl)acrylamide]	C (500 nM ≤ GI50 < 5000 nM)
C=CC(=O)Nc1cc(Nc2cc(N3OCC[C@@H]3Cc3cccc(Cl)c3Cl)ncn2)c(OC)cc1N1CCC(N2C[C@H]3C[C@@H]2CO3)CC1 [compound 1014, N-(2-(4-((1R,4R)-2-oxa-5-azabicyclo [2.2.1]heptane-5-yl)piperidine-1-yl)-5-((6-((S)-3-(2,3-dichlorobenzyl)isoxazolidine-2-yl)pyrimidine-4-yl)amino)-4-methoxyphenyl) acrylamide]	A (GI50 < 50 nM)
C=CC(=O)Nc1cc(Nc2cc(N3OCC[C@@H]3c3cccc(Cl)c3F)ncn2)c(OC)cc1N1CCC(N2CCO[C@@H](C)C2)CC1 [compound 356, N-(5-((6-((R)-3-(3-chloro-2-fluorophenyl)isoxazolidine-2-yl)pyrimidine-4-yl)amino)-4-methoxy-2-(4-((S)-2-methylmorpholino)piperidine-1-yl)phenyl) acrylamide]	A (GI50 < 50 nM)
C=CC(=O)Nc1cc(Nc2cc(N3OCC[C@@H]3c3cccc(F)c3F)ncn2)c(OC)cc1N1CCO[C@H](C)C1 [compound 889, N-(5-((6-((R)-3-(2,3-difluorophenyl)isoxazolidine-2-yl)pyrimidine-4-yl)amino)-4-methoxy-2-((R)-2-methylmorpholino)phenyl)acrylamide]	A (GI50 < 50 nM)

Now from value to compound:

Ba/F3 (NPH) Activity	SMILES
A (GI50 < 50 nM)	C=CC(=O)Nc1cc(Nc2cc(N3OCC[C@@H]3c3cccc(F)c3F)ncn2)c(OC)cc1N1CCC(N2CCN(C3CCC3)CC2)CC1 [Example 182, N-(2-(4-(4-cyclobutylpiperazine-1-yl)piperidine-1-yl)-5-((6-((R)-3-(2,3-difluorophenyl)isoxazolidine-2-yl)pyrimidine-4-yl)amino)-4-methoxyphenyl) acrylamide]
A (GI50 < 50 nM)	C=CC(=O)Nc1cc(Nc2cc(N3OCC[C@@H]3c3ccc(F)cc3F)ncn2)c(OC)cc1N1CCC(N2C[C@@H]3C[C@H]2CO3)CC1 [compound 381, N-(2-(4-((1S,4S)-2-oxa-5-azabicyclo[2.2.1]heptane-5-yl)piperidine-1-yl)-5-((6-((R)-3-(2,4-difluorophenyl)isoxazolidine-2-yl)pyrimidine-4-yl)amino)-4-methoxyphenyl) acrylamide]
B (50 nM ≤ GI50 < 500 nM)	C=CC(=O)Nc1cc(Nc2cc(N3OCC[C@@H]3c3c(F)ccc(F)c3F)ncn2)c(OC)cc1N1CCN(CC)CC1 [compound 631, N-(2-(4-ethylpiperazine-1-yl)-4-methoxy-5-((6-((R)-3-(2,3,6-trifluorophenyl)isoxazolidine-2-yl)pyrimidine-4-yl)amino)phenyl)acrylamide]
A (GI50 < 50 nM)	C#Cc1cccc([C@H]2CCON2c2cc(Nc3cc(NC(=O)C=C)c(N4CC[C@@H](N(C)C)C4)cc3OC)ncn2)c1 [compound 653, N-(2-((R)-3-(dimethylamino)pyrolidine-1-yl)-5-((6-((R)-3-(3-ethynylphenyl)isoxazolidine-2-yl)pyrimidine-4-yl)amino)-4-methoxyphenyl) acrylamide]
A (GI50 < 50 nM)	C=CC(=O)Nc1cc(Nc2cc(N3OCC[C@@H]3c3ccc(Cl)cc3F)ncn2)c(OC)cc1N1CCN(C)CC1 [compound 372, N-(5-((6-((R)-3-(4-chloro-2-fluorophenyl)isoxazolidine-2-yl)pyrimidine-4-yl)amino)-4-methoxy-2-(4-methylpiperazine-1-yl)phenyl)acrylamide]
B (50 nM ≤ GI50 < 500 nM)	C=CC(=O)Nc1cc(Nc2cc(N3OCC[C@@H]3c3cccc(C)c3F)ncn2)c(OC)cc1N(C)CCOC [compound 319, N-(5-((6-((R)-3-(2-fluoro-3-methylphenyl)isoxazolidine-2-yl)pyrimidine-4-yl)amino)-4-methoxy-2-((2-methoxyethyl) (methyl)amino)phenyl)acrylamide]
A (GI50 < 50 nM)	C=CC(=O)Nc1cc(Nc2cc(N3OCC[C@@H]3c3ccc(F)c(Cl)c3)ncn2)c(OC)cc1N1CCC(N2CCN(C(C)=O)CC2)CC1 [compound 763, N-(2-(4-(4-acetylpiperazine-1-yl)piperidine-1-yl)-5-((6-((R)-3-(3-chloro-4-fluorophenyl)isoxazolidine-2-yl)pyrimidine-4-yl)amino)-4-methoxyphenyl) acrylamide]
A (GI50 < 50 nM)	C=CC(=O)Nc1cc(Nc2cc(N3OCC[C@@H]3c3cccc(Cl)c3Cl)ncn2)c(OC)cc1N1CCN(CC)CC1 [compound 480, N-(5-((6-((R)-3-(2,3-dichlorophenyl)isoxazolidine-2-yl)pyrimidine-4-yl)amino)-2-(4-ethylpiperazine-1-yl)-4-methoxyphenyl) acrylamide]
A (GI50 < 50 nM)	C=CC(=O)Nc1cc(Nc2cc(N3OCC[C@@H]3c3ccc(F)c(F)c3)ncn2)c(OC)cc1N1CCN(CC)CC1 [compound 460, N-(5-((6-((R)-3-(3,4-difluorophenyl)isoxazolidine-2-yl)pyrimidine-4-yl)amino)-2-(4-ethylpiperazine-1-yl)-4-methoxyphenyl) acrylamide]
